Species: Rattus norvegicus
Assay: DrugMatrix - Regimen: Daily Repeat
Type: toxicity, organism-based, Sprague-Dawley
Set-up: regimen Daily Repeat, gender Male, age 6-8 weeks
Settings: in vivo, po, route oral GAVAGE, vehicle .5 % CMC; for BASOPHIL / EOSINOPHIL / ERYTHROCYTE COUNT / HEMATOCRIT / HEMOGLOBIN / LEUKOCYTE COUNT / LYMPHOCYTE / MEAN CORPUSCULAR HEMOGLOBIN / MEAN CORPUSCULAR HEMOGLOBIN CONCENTRATION / MEAN CORPUSCULAR VOLUME / MONOCYTE / NEUTROPHIL / PLATELET COUNT: tissue Blood; for ALANINE AMINOTRANSFERASE / ALBUMIN / ALKALINE PHOSPHATASE / ASPARTATE AMINOTRANSFERASE / BLOOD UREA NITROGEN / CHLORIDE / CHOLESTEROL / CREATINE PHOSPHOKINASE / CREATININE / GLUCOSE / PHOSPHORUS / POTASSIUM / SODIUM / TOTAL BILIRUBIN / TOTAL PROTEIN: tissue Plasma
[1] = 0 mg/kg, 72 h, dose level Control, time 3 day
[2] = 0 mg/kg, 120 h, dose level Control, time 5 day
[3] = 150 mg/kg, 72 h, dose level Low, time 3 day
[4] = 150 mg/kg, 120 h, dose level Low, time 5 day
[5] = 1500 mg/kg, 72 h, dose level High, time 3 day
[6] = 1500 mg/kg, 120 h, dose level High, time 5 day

C#C[C@]1(O)CC[C@H]2[C@@H]3CCC4=CC(=O)CC[C@]4(C)[C@H]3CC[C@@]21C [ETHISTERONE]
BASOPHIL [1]: 0.68%
EOSINOPHIL [1]: 0.46%
ERYTHROCYTE COUNT [1]: 7.15 x10E6/uL
HEMATOCRIT [1]: 45.44%
HEMOGLOBIN [1]: 14.1 G/DL
LEUKOCYTE COUNT [1]: 9.78 x10E3/uL
LYMPHOCYTE [1]: 84.44%
MEAN CORPUSCULAR HEMOGLOBIN [1]: 19.72 pg
MEAN CORPUSCULAR HEMOGLOBIN CONCENTRATION [1]: 31 G/DL
MEAN CORPUSCULAR VOLUME [1]: 63.66 fL
MONOCYTE [1]: 2.14%
NEUTROPHIL [1]: 11.16%
PLATELET COUNT [1]: 1378.2 x10E3/uL
ALANINE AMINOTRANSFERASE [1]: 42.33 u/L
ALBUMIN [1]: 3.8 G/DL
ALKALINE PHOSPHATASE [1]: 388.17 u/L
ASPARTATE AMINOTRANSFERASE [1]: 68 u/L
BLOOD UREA NITROGEN [1]: 16.17 mg/dL
CHLORIDE [1]: 96.67 MEQ/L
CHOLESTEROL [1]: 71 mg/dL
CREATINE PHOSPHOKINASE [1]: 156.17 u/L
CREATININE [1]: 0.57 mg/dL
GLUCOSE [1]: 193.67 mg/dL
PHOSPHORUS [1]: 11.43 mg/dL
POTASSIUM [1]: 7 MEQ/L
SODIUM [1]: 140.33 MEQ/L
TOTAL BILIRUBIN [1]: 0.48 mg/dL
TOTAL PROTEIN [1]: 6.8 G/DL
BASOPHIL [2]: 1.47%
EOSINOPHIL [2]: 1%
ERYTHROCYTE COUNT [2]: 7.12 x10E6/uL
HEMATOCRIT [2]: 45.47%
HEMOGLOBIN [2]: 14.1 G/DL
LEUKOCYTE COUNT [2]: 11.38 x10E3/uL
LYMPHOCYTE [2]: 82.57%
MEAN CORPUSCULAR HEMOGLOBIN [2]: 19.82 pg
MEAN CORPUSCULAR HEMOGLOBIN CONCENTRATION [2]: 31.02 G/DL
MEAN CORPUSCULAR VOLUME [2]: 63.88 fL
MONOCYTE [2]: 2.2%
NEUTROPHIL [2]: 11.97%
PLATELET COUNT [2]: 1267 x10E3/uL
ALANINE AMINOTRANSFERASE [2]: 38 u/L
ALBUMIN [2]: 3.72 G/DL
ALKALINE PHOSPHATASE [2]: 391 u/L
ASPARTATE AMINOTRANSFERASE [2]: 65.83 u/L
BLOOD UREA NITROGEN [2]: 14.17 mg/dL
CHLORIDE [2]: 107.67 MEQ/L
CHOLESTEROL [2]: 61 mg/dL
CREATINE PHOSPHOKINASE [2]: 148.33 u/L
CREATININE [2]: 0.57 mg/dL
GLUCOSE [2]: 177.17 mg/dL
PHOSPHORUS [2]: 12.07 mg/dL
POTASSIUM [2]: 7.2 MEQ/L
SODIUM [2]: 151.5 MEQ/L
TOTAL BILIRUBIN [2]: 0.58 mg/dL
TOTAL PROTEIN [2]: 6.72 G/DL
BASOPHIL [3]: 0.73%
EOSINOPHIL [3]: 0.33%
ERYTHROCYTE COUNT [3]: 6.6 x10E6/uL
HEMATOCRIT [3]: 41.67%
HEMOGLOBIN [3]: 13.17 G/DL
LEUKOCYTE COUNT [3]: 10.76 x10E3/uL
LYMPHOCYTE [3]: 79.57%
MEAN CORPUSCULAR HEMOGLOBIN [3]: 19.9 pg
MEAN CORPUSCULAR HEMOGLOBIN CONCENTRATION [3]: 31.57 G/DL
MEAN CORPUSCULAR VOLUME [3]: 63.13 fL
MONOCYTE [3]: 3.47%
NEUTROPHIL [3]: 14.4%
PLATELET COUNT [3]: 1218.67 x10E3/uL
ALANINE AMINOTRANSFERASE [3]: 35.67 u/L
ALBUMIN [3]: 3.57 G/DL
ALKALINE PHOSPHATASE [3]: 319.33 u/L
ASPARTATE AMINOTRANSFERASE [3]: 62.67 u/L
BLOOD UREA NITROGEN [3]: 13.33 mg/dL
CHLORIDE [3]: 95.33 MEQ/L
CHOLESTEROL [3]: 60 mg/dL
CREATINE PHOSPHOKINASE [3]: 132 u/L
CREATININE [3]: 0.5 mg/dL
GLUCOSE [3]: 185.33 mg/dL
PHOSPHORUS [3]: 12.3 mg/dL
POTASSIUM [3]: 6.3 MEQ/L
SODIUM [3]: 138.33 MEQ/L
TOTAL BILIRUBIN [3]: 0.4 mg/dL
TOTAL PROTEIN [3]: 6.37 G/DL
BASOPHIL [4]: 0.93%
EOSINOPHIL [4]: 0.27%
ERYTHROCYTE COUNT [4]: 7.3 x10E6/uL
HEMATOCRIT [4]: 45.67%
HEMOGLOBIN [4]: 14.1 G/DL
LEUKOCYTE COUNT [4]: 8.86 x10E3/uL
LYMPHOCYTE [4]: 86.5%
MEAN CORPUSCULAR HEMOGLOBIN [4]: 19.3 pg
MEAN CORPUSCULAR HEMOGLOBIN CONCENTRATION [4]: 30.87 G/DL
MEAN CORPUSCULAR VOLUME [4]: 62.6 fL
MONOCYTE [4]: 2.7%
NEUTROPHIL [4]: 8.87%
PLATELET COUNT [4]: 1265.33 x10E3/uL
ALANINE AMINOTRANSFERASE [4]: 35.67 u/L
ALBUMIN [4]: 3.6 G/DL
ALKALINE PHOSPHATASE [4]: 382.67 u/L
ASPARTATE AMINOTRANSFERASE [4]: 57.67 u/L
BLOOD UREA NITROGEN [4]: 14.33 mg/dL
CHLORIDE [4]: 105.67 MEQ/L
CHOLESTEROL [4]: 39.67 mg/dL
CREATINE PHOSPHOKINASE [4]: 113.33 u/L
CREATININE [4]: 0.57 mg/dL
GLUCOSE [4]: 167 mg/dL
PHOSPHORUS [4]: 11.77 mg/dL
POTASSIUM [4]: 7.4 MEQ/L
SODIUM [4]: 151 MEQ/L
TOTAL BILIRUBIN [4]: 0.4 mg/dL
TOTAL PROTEIN [4]: 6.53 G/DL
BASOPHIL [5]: 0.3%
EOSINOPHIL [5]: 0.23%
ERYTHROCYTE COUNT [5]: 7.32 x10E6/uL
HEMATOCRIT [5]: 46.8%
HEMOGLOBIN [5]: 15 G/DL
LEUKOCYTE COUNT [5]: 13.73 x10E3/uL
LYMPHOCYTE [5]: 85.93%
MEAN CORPUSCULAR HEMOGLOBIN [5]: 20.53 pg
MEAN CORPUSCULAR HEMOGLOBIN CONCENTRATION [5]: 32.13 G/DL
MEAN CORPUSCULAR VOLUME [5]: 63.97 fL
MONOCYTE [5]: 2.43%
NEUTROPHIL [5]: 9.77%
PLATELET COUNT [5]: 1394 x10E3/uL
ALANINE AMINOTRANSFERASE [5]: 25.33 u/L
ALBUMIN [5]: 3.93 G/DL
ALKALINE PHOSPHATASE [5]: 316.67 u/L
ASPARTATE AMINOTRANSFERASE [5]: 60.33 u/L
BLOOD UREA NITROGEN [5]: 13.67 mg/dL
CHLORIDE [5]: 96 MEQ/L
CHOLESTEROL [5]: 34 mg/dL
CREATINE PHOSPHOKINASE [5]: 152 u/L
CREATININE [5]: 0.43 mg/dL
GLUCOSE [5]: 166.67 mg/dL
PHOSPHORUS [5]: 12.2 mg/dL
POTASSIUM [5]: 6.83 MEQ/L
SODIUM [5]: 142 MEQ/L
TOTAL BILIRUBIN [5]: 0.3 mg/dL
TOTAL PROTEIN [5]: 7.17 G/DL
BASOPHIL [6]: 0.93%
EOSINOPHIL [6]: 0.27%
ERYTHROCYTE COUNT [6]: 7.53 x10E6/uL
HEMATOCRIT [6]: 48.07%
HEMOGLOBIN [6]: 14.97 G/DL
LEUKOCYTE COUNT [6]: 7.76 x10E3/uL
LYMPHOCYTE [6]: 80.6%
MEAN CORPUSCULAR HEMOGLOBIN [6]: 19.97 pg
MEAN CORPUSCULAR HEMOGLOBIN CONCENTRATION [6]: 31.2 G/DL
MEAN CORPUSCULAR VOLUME [6]: 63.93 fL
MONOCYTE [6]: 3.3%
NEUTROPHIL [6]: 13.73%
PLATELET COUNT [6]: 1362.33 x10E3/uL
ALANINE AMINOTRANSFERASE [6]: 31.67 u/L
ALBUMIN [6]: 3.73 G/DL
ALKALINE PHOSPHATASE [6]: 496 u/L
ASPARTATE AMINOTRANSFERASE [6]: 57.33 u/L
BLOOD UREA NITROGEN [6]: 11 mg/dL
CHLORIDE [6]: 105.67 MEQ/L
CHOLESTEROL [6]: 35.33 mg/dL
CREATINE PHOSPHOKINASE [6]: 132.67 u/L
CREATININE [6]: 0.57 mg/dL
GLUCOSE [6]: 185.67 mg/dL
PHOSPHORUS [6]: 13.8 mg/dL
POTASSIUM [6]: 7.47 MEQ/L
SODIUM [6]: 151.33 MEQ/L
TOTAL BILIRUBIN [6]: 0.33 mg/dL
TOTAL PROTEIN [6]: 6.83 G/DL

Source: ChEMBL document CHEMBL3885881, “DrugMatrix”
